In patent US11667666B2, “Methods and compositions for treatment of cancer” (CFD Research Corporation, priority 2020, dated 2023):

System: PANC-1 cells
Test: Cell Titer-Glo luminescent cell viability assay, in vitro compound screening against pancreatic cancer cell lines
Type: cell-based
Conditions: 24 and 48-hour post dosing; 10 nM, 100 nM, 1 μM, 10 μM, and 100 μM; n=4
Protocol: In vitro compound screening against pancreatic cancer cell lines for IC50 determination. […] ASPC-1, BXPC-3, MIA-PaCa-2, and PANC-1 cell lines were obtained from ATCC. […] It should be noted that PANC-1, MIA-PaCa-2 and BxPC-3 cell-lines are gemcitabine-resistant cell-lines.
The IC50 was calculated using the following Log (inhibitor) versus Response equation: Y=Bottom+(Top−Bottom)/(1+10^((X-Log IC50))). Representative data and calculated IC50 values using the assay for representative compounds are shown FIGS. 4-7.

CC1(C)O[C@@H]2C[C@H]3[C@@H]4CCC5=CC(=O)C=C[C@]5(C)[C@H]4[C@@H](O)C[C@]3(C)[C@]2(C(=O)CO)O1 [Compound 7, desonide]
inhibition of cell-proliferation: did not show any appreciable inhibition of cell-proliferation

bentiromide [Compound 5]
inhibition of cell-proliferation: did not show any appreciable inhibition of cell-proliferation

glimepiride [Compound 8]
inhibition of cell-proliferation: did not show any appreciable inhibition of cell-proliferation
